Measurements from ChEMBL document CHEMBL3797052 (Eur J Med Chem, 2016).

system: not listed separately; test: Antiproliferative activity against human HL-60(TB) cells assessed as cell growth at 10^-5 M after 48 hrs by sulforhodamine B assay; type: functional; settings: HL-60, 48 h, read-out: Activity

SMILES | growth at 10 µM
CNC(=O)c1cc(Oc2ccc3nc(NC(=O)Nc4ccc(Cl)c(Cl)c4)sc3c2)ccn1 | 95%

system: HT-29; test: Antiproliferative activity against human HT-29 cells assessed as cell growth at 10^-5 M after 48 hrs by sulforhodamine B assay; type: functional; settings: HT-29, 48 h, read-out: Activity

SMILES | growth at 10 µM
CNC(=O)c1cc(Oc2ccc3nc(NC(=O)Nc4ccc(Cl)c(Cl)c4)sc3c2)ccn1 | -61%

system: not listed separately; test: Antiproliferative activity against human COLO205 cells assessed as cell growth at 10^-5 M after 48 hrs by sulforhodamine B assay; type: functional; settings: COLO 205, 48 h, read-out: Activity

SMILES | growth at 10 µM
CNC(=O)c1cc(Oc2ccc3nc(NC(=O)Nc4ccc(Cl)c(Cl)c4)sc3c2)ccn1 | 16%

system: KM12; test: Antiproliferative activity against human KM12 cells assessed as cell growth at 10^-5 M after 48 hrs by sulforhodamine B assay; type: functional; settings: KM12, 48 h, read-out: Activity

SMILES | growth at 10 µM
CNC(=O)c1cc(Oc2ccc3nc(NC(=O)Nc4ccc(Cl)c(Cl)c4)sc3c2)ccn1 | 5%

system: not listed separately; test: Antiproliferative activity against human HCT15 cells assessed as cell growth at 10^-5 M after 48 hrs by sulforhodamine B assay; type: functional; settings: HCT-15, 48 h, read-out: Activity

SMILES | growth at 10 µM
CNC(=O)c1cc(Oc2ccc3nc(NC(=O)Nc4ccc(Cl)c(Cl)c4)sc3c2)ccn1 | -19%

system: not listed separately; test: Antiproliferative activity against human HCT116 cells assessed as cell growth at 10^-5 M after 48 hrs by sulforhodamine B assay; type: functional; settings: HCT-116, 48 h, read-out: Activity

SMILES | growth at 10 µM
CNC(=O)c1cc(Oc2ccc3nc(NC(=O)Nc4ccc(Cl)c(Cl)c4)sc3c2)ccn1 | -50%

system: not listed separately; test: Cytotoxicity against human HCT116 cells assessed as growth inhibition at 10 uM after 2 days by MTT assay; type: functional; settings: HCT-116, 48 h, read-out: GI

SMILES | inhibition of growth at 10 µM
CNC(=O)c1cc(Oc2ccc3nc(NC(=O)Nc4ccc(Cl)c(Cl)c4)sc3c2)ccn1 | 69.8%

system: not listed separately; test: Antiproliferative activity against human HOP92 cells assessed as cell growth at 10^-5 M after 48 hrs by sulforhodamine B assay; type: functional; settings: HOP-92, 48 h, read-out: Activity

SMILES | growth at 10 µM
CNC(=O)c1cc(Oc2ccc3nc(NC(=O)Nc4ccc(Cl)c(Cl)c4)sc3c2)ccn1 | -44%

system: not listed separately; test: Antiproliferative activity against human OVCAR4 cells assessed as cell growth at 10^-5 M after 48 hrs by sulforhodamine B assay; type: functional; settings: OVCAR-4, 48 h, read-out: Activity

SMILES | growth at 10 µM
CNC(=O)c1cc(Oc2ccc3nc(NC(=O)Nc4ccc(Cl)c(Cl)c4)sc3c2)ccn1 | -68%

system: not listed separately; test: Antiproliferative activity against human SNB19 cells assessed as cell growth at 10^-5 M after 48 hrs by sulforhodamine B assay; type: functional; settings: SNB-19, 48 h, read-out: Activity

SMILES | growth at 10 µM
CNC(=O)c1cc(Oc2ccc3nc(NC(=O)Nc4ccc(Cl)c(Cl)c4)sc3c2)ccn1 | -67%

system: not listed separately; test: Cytotoxicity against human SKBR3 cells assessed as growth inhibition at 10 uM after 2 days by MTT assay; type: functional; settings: SK-BR-3, 48 h, read-out: GI

SMILES | inhibition of growth at 10 µM
CNC(=O)c1cc(Oc2ccc3nc(NC(=O)Nc4ccc(Cl)c(Cl)c4)sc3c2)ccn1 | 69%

system: NCI-H322M; test: Antiproliferative activity against human NCI-H322M cells assessed as cell growth at 10^-5 M after 48 hrs by sulforhodamine B assay; type: functional; settings: read-out: Activity

SMILES | growth at 10 µM
CNC(=O)c1cc(Oc2ccc3nc(NC(=O)Nc4ccc(Cl)c(Cl)c4)sc3c2)ccn1 | -4%

system: not listed separately; test: Antiproliferative activity against human Hs 578T cells assessed as cell growth at 10^-5 M after 48 hrs by sulforhodamine B assay; type: functional; settings: read-out: Activity

SMILES | growth at 10 µM
CNC(=O)c1cc(Oc2ccc3nc(NC(=O)Nc4ccc(Cl)c(Cl)c4)sc3c2)ccn1 | -23%

system: MDA-MB-468; test: Antiproliferative activity against human MDA-MB-468 cells assessed as cell growth at 10^-5 M after 48 hrs by sulforhodamine B assay; type: functional; settings: MDA-MB-468, 48 h, read-out: Activity

SMILES | growth at 10 µM
CNC(=O)c1cc(Oc2ccc3nc(NC(=O)Nc4ccc(Cl)c(Cl)c4)sc3c2)ccn1 | -36%

system: SK-MEL-2; test: Antiproliferative activity against human SK-MEL-2 cells assessed as cell growth at 10^-5 M after 48 hrs by sulforhodamine B assay; type: functional; settings: SK-MEL-2, 48 h, read-out: Activity

SMILES | growth at 10 µM
CNC(=O)c1cc(Oc2ccc3nc(NC(=O)Nc4ccc(Cl)c(Cl)c4)sc3c2)ccn1 | -30%

system: not listed separately; test: Antiproliferative activity against human DU145 cells assessed as cell growth at 10^-5 M after 48 hrs by sulforhodamine B assay; type: functional; settings: DU-145, 48 h, read-out: Activity

SMILES | growth at 10 µM
CNC(=O)c1cc(Oc2ccc3nc(NC(=O)Nc4ccc(Cl)c(Cl)c4)sc3c2)ccn1 | -25%

system: not listed separately; test: Antiproliferative activity against human RPMI8226 cells assessed as cell growth at 10^-5 M after 48 hrs by sulforhodamine B assay; type: functional; settings: RPMI-8226, 48 h, read-out: Activity

SMILES | growth at 10 µM
CNC(=O)c1cc(Oc2ccc3nc(NC(=O)Nc4ccc(Cl)c(Cl)c4)sc3c2)ccn1 | 9%

system: not listed separately; test: Antiproliferative activity against human HCC2998 cells assessed as cell growth at 10^-5 M after 48 hrs by sulforhodamine B assay; type: functional; settings: HCC 2998, 48 h, read-out: Activity

SMILES | growth at 10 µM
CNC(=O)c1cc(Oc2ccc3nc(NC(=O)Nc4ccc(Cl)c(Cl)c4)sc3c2)ccn1 | 29%

system: not listed separately; test: Cytotoxicity against human SKBR3 cells assessed as growth inhibition at 100 uM after 2 days by MTT assay; type: functional; settings: SK-BR-3, 48 h, read-out: GI

SMILES | inhibition of growth at 100 µM
CNC(=O)c1cc(Oc2ccc3nc(NC(=O)Nc4ccc(Cl)c(Cl)c4)sc3c2)ccn1 | 92.6%

system: not listed separately; test: Antiproliferative activity against human HOP62 cells assessed as cell growth at 10^-5 M after 48 hrs by sulforhodamine B assay; type: functional; settings: HOP-62, 48 h, read-out: Activity

SMILES | growth at 10 µM
CNC(=O)c1cc(Oc2ccc3nc(NC(=O)Nc4ccc(Cl)c(Cl)c4)sc3c2)ccn1 | -79%

system: not listed separately; test: Cytotoxicity against human HCT116 cells assessed as growth inhibition at 100 uM after 2 days by MTT assay; type: functional; settings: HCT-116, 48 h, read-out: GI

SMILES | inhibition of growth at 100 µM
CNC(=O)c1cc(Oc2ccc3nc(NC(=O)Nc4ccc(Cl)c(Cl)c4)sc3c2)ccn1 | 91.9%

system: not listed separately; test: Antiproliferative activity against human UACC62 cells assessed as cell growth at 10^-5 M after 48 hrs by sulforhodamine B assay; type: functional; settings: UACC-62, 48 h, read-out: Activity

SMILES | growth at 10 µM
CNC(=O)c1cc(Oc2ccc3nc(NC(=O)Nc4ccc(Cl)c(Cl)c4)sc3c2)ccn1 | -11%

system: not listed separately; test: Antiproliferative activity against human UO31 cells assessed as cell growth at 10^-5 M after 48 hrs by sulforhodamine B assay; type: functional; settings: UO-31, 48 h, read-out: Activity

SMILES | growth at 10 µM
CNC(=O)c1cc(Oc2ccc3nc(NC(=O)Nc4ccc(Cl)c(Cl)c4)sc3c2)ccn1 | -72%

system: not listed separately; test: Antiproliferative activity against human OVCAR8 cells assessed as cell growth at 10^-5 M after 48 hrs by sulforhodamine B assay; type: functional; settings: OVCAR-8, 48 h, read-out: Activity

SMILES | growth at 10 µM
CNC(=O)c1cc(Oc2ccc3nc(NC(=O)Nc4ccc(Cl)c(Cl)c4)sc3c2)ccn1 | -40%

system: MDA-MB-435; test: Antiproliferative activity against human MDA-MB-435 cells assessed as cell growth at 10^-5 M after 48 hrs by sulforhodamine B assay; type: functional; settings: MDA-MB-435, 48 h, read-out: Activity

SMILES | growth at 10 µM
CNC(=O)c1cc(Oc2ccc3nc(NC(=O)Nc4ccc(Cl)c(Cl)c4)sc3c2)ccn1 | -47%

system: SK-MEL-28; test: Antiproliferative activity against human SK-MEL-28 cells assessed as cell growth at 10^-5 M after 48 hrs by sulforhodamine B assay; type: functional; settings: SK-MEL-28, 48 h, read-out: Activity

SMILES | growth at 10 µM
CNC(=O)c1cc(Oc2ccc3nc(NC(=O)Nc4ccc(Cl)c(Cl)c4)sc3c2)ccn1 | -72%

system: not listed separately; test: Antiproliferative activity against human BT549 cells assessed as cell growth at 10^-5 M after 48 hrs by sulforhodamine B assay; type: functional; settings: BT-549, 48 h, read-out: Activity

SMILES | growth at 10 µM
CNC(=O)c1cc(Oc2ccc3nc(NC(=O)Nc4ccc(Cl)c(Cl)c4)sc3c2)ccn1 | 26%

system: T47D; test: Antiproliferative activity against human T47D cells assessed as cell growth at 10^-5 M after 48 hrs by sulforhodamine B assay; type: functional; settings: read-out: Activity

SMILES | growth at 10 µM
CNC(=O)c1cc(Oc2ccc3nc(NC(=O)Nc4ccc(Cl)c(Cl)c4)sc3c2)ccn1 | -26%

system: not listed separately; test: Antiproliferative activity against human Caki1 cells assessed as cell growth at 10^-5 M after 48 hrs by sulforhodamine B assay; type: functional; settings: CAKI-1, 48 h, read-out: Activity

SMILES | growth at 10 µM
CNC(=O)c1cc(Oc2ccc3nc(NC(=O)Nc4ccc(Cl)c(Cl)c4)sc3c2)ccn1 | -25%

system: NCI-H522; test: Antiproliferative activity against human NCI-H522 cells assessed as cell growth at 10^-5 M after 48 hrs by sulforhodamine B assay; type: functional; settings: NCI-H522, 48 h, read-out: Activity

SMILES | growth at 10 µM
CNC(=O)c1cc(Oc2ccc3nc(NC(=O)Nc4ccc(Cl)c(Cl)c4)sc3c2)ccn1 | 20%

system: not listed separately; test: Antiproliferative activity against human SF539 cells assessed as cell growth at 10^-5 M after 48 hrs by sulforhodamine B assay; type: functional; settings: SF-539, 48 h, read-out: Activity

SMILES | growth at 10 µM
CNC(=O)c1cc(Oc2ccc3nc(NC(=O)Nc4ccc(Cl)c(Cl)c4)sc3c2)ccn1 | -49%

system: not listed separately; test: Antiproliferative activity against human LOXIMVI cells assessed as cell growth at 10^-5 M after 48 hrs by sulforhodamine B assay; type: functional; settings: LOX IMVI, read-out: Activity

SMILES | growth at 10 µM
CNC(=O)c1cc(Oc2ccc3nc(NC(=O)Nc4ccc(Cl)c(Cl)c4)sc3c2)ccn1 | -79%

system: not listed separately; test: Antiproliferative activity against human SF268 cells assessed as cell growth at 10^-5 M after 48 hrs by sulforhodamine B assay; type: functional; settings: SF-268, 48 h, read-out: Activity

SMILES | growth at 10 µM
CNC(=O)c1cc(Oc2ccc3nc(NC(=O)Nc4ccc(Cl)c(Cl)c4)sc3c2)ccn1 | -57%

system: K562; test: Antiproliferative activity against human K562 cells assessed as cell growth at 10^-5 M after 48 hrs by sulforhodamine B assay; type: functional; settings: K562, 48 h, read-out: Activity

SMILES | growth at 10 µM
CNC(=O)c1cc(Oc2ccc3nc(NC(=O)Nc4ccc(Cl)c(Cl)c4)sc3c2)ccn1 | 55%

system: not listed separately; test: Antiproliferative activity against human SW620 cells assessed as cell growth at 10^-5 M after 48 hrs by sulforhodamine B assay; type: functional; settings: SW-620, 48 h, read-out: Activity

SMILES | growth at 10 µM
CNC(=O)c1cc(Oc2ccc3nc(NC(=O)Nc4ccc(Cl)c(Cl)c4)sc3c2)ccn1 | 42%

system: A498; test: Antiproliferative activity against human A498 cells assessed as cell growth at 10^-5 M after 48 hrs by sulforhodamine B assay; type: functional; settings: A498, 48 h, read-out: Activity

SMILES | growth at 10 µM
CNC(=O)c1cc(Oc2ccc3nc(NC(=O)Nc4ccc(Cl)c(Cl)c4)sc3c2)ccn1 | -25%

system: Malme-3M; test: Antiproliferative activity against human MALME-3M cells assessed as cell growth at 10^-5 M after 48 hrs by sulforhodamine B assay; type: functional; settings: read-out: Activity

SMILES | growth at 10 µM
CNC(=O)c1cc(Oc2ccc3nc(NC(=O)Nc4ccc(Cl)c(Cl)c4)sc3c2)ccn1 | -71%
